Assays:
[1] = test system: Rat Hepatocytes (rHep); test: Metabolic stability in rat hepatocytes (rHep); assay type: in vitro ADME; conditions: n = 1 or geometric mean of n = 2-3
[2] = Caco-2 cell permeability; assay type: in vitro ADME; conditions: human, Caco-2, AB intrinsic; n = 1 or average of n = 2-4; read-out: Caco2 AB Intrinsic Papp
Protocol: Caco-2 cell permeability was measured as described in Mol Pharm 2017, 14, 1601.

[3] = target: FAP (Macaca fascicularis, UniProt A0A2K5VGH4); test: FAP plasma inhibition assay, cynomolgus plasma; assay type: biochemical; conditions: cynomolgus plasma diluted 1:40, 75 μM Ala-Pro-AMC; n = 1; read-out: FAP Cyno Plasma IC50
FAP, sequence (A0A2K5VGH4 entry or part of it): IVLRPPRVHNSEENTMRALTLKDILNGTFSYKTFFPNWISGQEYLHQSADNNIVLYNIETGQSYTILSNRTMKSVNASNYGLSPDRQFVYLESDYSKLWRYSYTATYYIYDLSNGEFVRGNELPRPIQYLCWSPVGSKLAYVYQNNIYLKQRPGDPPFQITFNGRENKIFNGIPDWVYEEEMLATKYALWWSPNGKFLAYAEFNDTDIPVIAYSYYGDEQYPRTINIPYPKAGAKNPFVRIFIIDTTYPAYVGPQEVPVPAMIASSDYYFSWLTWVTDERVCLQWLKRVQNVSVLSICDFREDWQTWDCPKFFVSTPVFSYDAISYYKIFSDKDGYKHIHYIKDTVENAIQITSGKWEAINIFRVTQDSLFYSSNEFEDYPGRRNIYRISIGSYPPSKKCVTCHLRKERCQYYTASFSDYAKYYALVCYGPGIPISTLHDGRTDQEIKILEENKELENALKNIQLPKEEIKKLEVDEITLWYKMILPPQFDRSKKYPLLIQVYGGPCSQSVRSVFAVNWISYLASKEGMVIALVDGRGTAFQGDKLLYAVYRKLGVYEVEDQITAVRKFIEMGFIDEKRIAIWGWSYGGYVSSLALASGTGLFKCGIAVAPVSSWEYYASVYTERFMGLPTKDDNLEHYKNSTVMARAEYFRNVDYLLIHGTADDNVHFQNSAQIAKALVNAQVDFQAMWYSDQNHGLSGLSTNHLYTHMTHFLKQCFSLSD
Protocol: D. FAP Plasma Inhibition Assay This assay was adapted from the method described in Example 237 for detection of FAP target engagement enzyme activity in plasma. […] Compounds were tested using 10 CR, 3 fold dilution series from 500 nM FAC. Two replicates for each assay point were run on the same plate. A fluorescence blank read was taken before substrate addition. […] Plates were incubated for 40 min at rt in the dark. […] IC50 values were determined by plotting % inhibition versus log compound concentration.

| Structure (SMILES) | rHep CLint [1] [μL/min/1E6] | Papp A→B [2] [×10⁻⁶ cm/s] | IC50 [3] [nM] |
| --- | --- | --- | --- |
| CC1CC(F)(F)CCN1c1ccc2nccc(C(=O)NCC(=O)N3CSC[C@H]3C#N)c2c1 (mixture of isomers) [Example 44, N-(2-((R)-4-Cyanothiazolidin-3-yl)-2-oxoethyl)-6-((RS)-4,4-difluoro-2-methylpiperidin-1-yl)quinoline-4-carboxamide] | 160 | – | – |
| N#C[C@@H]1CSCN1C(=O)CNC(=O)c1ccnc2ccc(N3CCOCC3C(F)(F)F)cc12 (single isomer, unassigned) [Example 84, N-(2-((R)-4-Cyanothiazolidin-3-yl)-2-oxoethyl)-6-((R*)-3-(trifluoromethyl)-morpholino)quinoline-4-carboxamide] | 26 | – | – |
| N#C[C@@H]1CSCN1C(=O)CNC(=O)c1c(F)cnc2ccc(N3CCOCC3)cc12 [Example 2, (R)—N-(2-(4-Cyanothiazolidin-3-yl)-2-oxoethyl)-3-fluoro-6-morpholino-quinoline-4-carboxamide] | – | 23 | 9.2 |
| N#C[C@@H]1CSCN1C(=O)CNC(=O)c1ccnc2ccc(N3CC(C(F)F)C3)cc12 [Example 28, (R)—N-(2-(4-Cyanothiazolidin-3-yl)-2-oxoethyl)-6-(3-(difluoromethyl)-azetidin-1-yl)quinoline-4-carboxamide] | – | 21 | 0.3 |
| CC1(C)CN(c2ccc3nccc(C(=O)NCC(=O)N4CSC[C@H]4C#N)c3c2)CCO1 [Example 88, (R)—N-(2-(4-Cyanothiazolidin-3-yl)-2-oxoethyl)-6-(2,2-dimethyl-morpholino)quinoline-4-carboxamide] | – | 13 | 0.2 |
| N#C[C@@H]1CSCN1C(=O)CNC(=O)c1ccnc2ccc(N3C4CCC3COC4)cc12 [Example 98, 6-(3-Oxa-8-azabicyclo[3.2.1]octan-8-yl)-N-(2-((R)-4-cyanothiazolidin-3-yl)-2-oxoethyl)quinoline-4-carboxamide] | – | 8.6 | 0.3 |
| N#C[C@@H]1CSCN1C(=O)CNC(=O)c1ccnc2ccc(N3CC(CF)C3)cc12 [Example 113, (R)—N-(2-(4-Cyanothiazolidin-3-yl)-2-oxoethyl)-6-(3-(fluoromethyl)azetidin-1-yl)quinoline-4-carboxamide] | – | 20 | 0.4 |

Results, then the compound that gave them:

| rHep CLint [1] [μL/min/1E6] | Papp A→B [2] [×10⁻⁶ cm/s] | IC50 [3] [nM] | Structure (SMILES) |
| --- | --- | --- | --- |
| 47 | – | – | CC1N(c2ccc3nccc(C(=O)NCC(=O)N4CSC[C@H]4C#N)c3c2)CC1(F)F (mixture of isomers) [Example 159, N-(2-((R)-4-Cyanothiazolidin-3-yl)-2-oxoethyl)-6-((RS)-3,3-difluoro-2-methylazetidin-1-yl)quinoline-4-carboxamide] |
| <1 | – | – | CC1CCN(c2ccc3nccc(C(=O)NCC(=O)N4CSC[C@H]4C#N)c3c2)C1=O (single isomer, unassigned) [Example 202, N-(2-((R)-4-Cyanothiazolidin-3-yl)-2-oxoethyl)-6-((R*)-3-methyl-2-oxopyrrolidin-1-yl)quinoline-4-carboxamide] |
| – | 0.1 | 0.3 | CC(=O)N1CC2(C1)CN(c1ccc3nccc(C(=O)NCC(=O)N4CSC[C@H]4C#N)c3c1)C2 [Example 184, (R)-6-(6-Acetyl-2,6-diazaspiro[3.3]heptan-2-yl)-N-(2-(4-cyanothiazolidin-3-yl)-2-oxoethyl)quinoline-4-carboxamide] |
| – | 0.28 | – | CC1(CS(C)(=O)=O)CN(c2ccc3nccc(C(=O)NCC(=O)N4CSC[C@H]4C#N)c3c2)C1 [Example 188, (R)—N-(2-(4-Cyanothiazolidin-3-yl)-2-oxoethyl)-6-(3-methyl-3-((methylsulfonyl)methyl)azetidin-1-yl)quinoline-4-carboxamide] |
